This is an account of results in publication PMC12417329 (Food Science & Nutrition, 2025).

In brackets after ≈: the same amount, converted by molar mass. Entries after “also recorded” stand apart in the source; their conditions may differ. Like-named read-outs stand apart in the source and are kept apart here.

One experiment deals with HPU. As to conditions: ref Xiao et al. [2007]; cited from earlier work.
In experiment [1] the target is T1, jack bean urease (JBU) (Canavalia ensiformis, UniProt P07374).
T1 construct: Jack bean urease (JBU) (Type III, 40.3 U/mg) were offered by Sigma; purchased Sigma Type III, 40.3 U/mg (catalogue number not given)
T1 sequence (P07374 whole entry, looked up): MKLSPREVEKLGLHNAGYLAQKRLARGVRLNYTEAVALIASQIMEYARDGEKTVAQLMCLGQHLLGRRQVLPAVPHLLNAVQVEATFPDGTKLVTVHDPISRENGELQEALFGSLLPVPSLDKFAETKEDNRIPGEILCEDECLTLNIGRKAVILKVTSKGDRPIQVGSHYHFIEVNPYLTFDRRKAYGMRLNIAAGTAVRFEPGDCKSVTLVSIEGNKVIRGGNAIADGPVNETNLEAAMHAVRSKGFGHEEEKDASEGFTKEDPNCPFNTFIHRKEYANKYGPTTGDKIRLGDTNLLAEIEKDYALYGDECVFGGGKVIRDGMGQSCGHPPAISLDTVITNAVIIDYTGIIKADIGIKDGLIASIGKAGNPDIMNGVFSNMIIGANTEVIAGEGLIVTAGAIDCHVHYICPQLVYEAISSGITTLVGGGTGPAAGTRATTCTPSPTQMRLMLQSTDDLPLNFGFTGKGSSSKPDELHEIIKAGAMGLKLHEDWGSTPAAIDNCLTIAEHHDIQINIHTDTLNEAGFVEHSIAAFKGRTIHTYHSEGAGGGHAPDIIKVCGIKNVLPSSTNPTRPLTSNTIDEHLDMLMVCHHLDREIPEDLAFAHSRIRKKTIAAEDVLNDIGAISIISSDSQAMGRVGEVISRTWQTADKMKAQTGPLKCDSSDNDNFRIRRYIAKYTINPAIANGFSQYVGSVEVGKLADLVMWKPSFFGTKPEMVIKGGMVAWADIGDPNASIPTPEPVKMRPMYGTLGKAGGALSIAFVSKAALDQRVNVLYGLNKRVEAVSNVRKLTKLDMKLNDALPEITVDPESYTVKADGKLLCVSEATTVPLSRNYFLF
The experiment in a line: biochemical.

For experiment [2], the target named is T2, H. pylori urease (HPU) (Helicobacter pylori, UniProt P69996).
T2 construct: endogenous in cells; host or cells: Helicobacter pylori ATCC 43504 (extract, method of Matsubara et al. 2003)
T2 sequence (P69996 whole entry): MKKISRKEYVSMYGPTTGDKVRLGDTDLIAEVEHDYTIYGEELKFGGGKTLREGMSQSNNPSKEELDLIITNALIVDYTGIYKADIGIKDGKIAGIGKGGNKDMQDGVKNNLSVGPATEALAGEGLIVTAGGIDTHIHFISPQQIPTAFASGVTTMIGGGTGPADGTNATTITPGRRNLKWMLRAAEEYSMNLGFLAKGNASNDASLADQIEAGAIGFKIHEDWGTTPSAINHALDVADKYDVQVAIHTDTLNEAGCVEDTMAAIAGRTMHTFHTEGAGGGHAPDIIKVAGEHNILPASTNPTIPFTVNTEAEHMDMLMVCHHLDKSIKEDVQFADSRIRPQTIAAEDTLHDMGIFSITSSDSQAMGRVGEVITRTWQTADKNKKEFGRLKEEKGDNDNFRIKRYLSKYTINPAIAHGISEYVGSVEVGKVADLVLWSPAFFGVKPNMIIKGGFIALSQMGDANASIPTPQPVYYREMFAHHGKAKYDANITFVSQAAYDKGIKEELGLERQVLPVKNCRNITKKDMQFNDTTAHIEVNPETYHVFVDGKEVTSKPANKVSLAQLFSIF
T2 sequence (P14916 whole entry, further chain): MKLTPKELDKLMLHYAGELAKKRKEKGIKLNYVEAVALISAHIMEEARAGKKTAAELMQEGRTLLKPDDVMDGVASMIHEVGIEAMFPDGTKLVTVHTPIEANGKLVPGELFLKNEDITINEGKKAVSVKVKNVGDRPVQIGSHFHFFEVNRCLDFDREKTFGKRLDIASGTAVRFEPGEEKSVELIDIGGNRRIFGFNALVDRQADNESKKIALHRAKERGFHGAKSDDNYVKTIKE
The experiment in a line: Urease inhibition test (Berthelot, ammonia at 595 nm). The experiment is classed as biochemical. As for the experimental part: (§1) The standard strain H. pylori strains (ATCC 43504) were cultured on Mueller‐Hinton agar supplemented with 5% sheep blood. Bacterial cultures were maintained for 72 h at 37°C in a microaerophilic environment (5% O2, 10% CO2, 85% N2). For urease extraction, bacterial cells were harvested by centrifugation (5000×g, 10 min, 4°C) and subsequently washed three times with phosphate‐buffered saline (pH 7.4). Following turbidity adjustment using McFarland standards, H. pylori urease was prepared via a method established by Matsubara et al. ([2003]).
Urease activity was measured using spectrophotometry. The reaction was initiated by blending a particular amount of enzyme‐containing solution and 150 mM urea in 20 mM HEPES buffer (pH 7.5) at 37°C. Following 20 min, the Berthelot reagent was applied, and the quantity of ammonia produced by the urease‐urea reaction was detected at 595 nm (Wu et al. [2013]). The control group represented the activity of the uninhibited enzyme, which is 100% active. […]
Then 150 mM urea was added, and the reaction was carried out in the dark for 20 min. Afterward, the Berthelot reagent was added, and the quantity of ammonia produced by the urease‐urea reaction was detected at 595 nm. The residual enzyme activity (RA%) was calculated using the formula: RA% = activity with inhibitor/activity without inhibitor × 100%. […]

For the next experiment, the system named is JBU. As to conditions: cited from earlier work.
Experiment [3] addresses T1, jack bean urease (JBU). The experiment in a line: Urease inhibition type and kinetics (Lineweaver-Burk plots, progress curves). The experiment is classed as biochemical. As for the experimental part: (§2) The Lineweaver‐Burk plots were applied to calculate the change in the Michaelis constant (K M) and maximum velocity (V max). […] Additionally, the inhibition constant was derived by secondary replotting of Lineweaver‐Burk plots. All tests were performed in triplicate.
(§3) Enzyme activity in both procedures was measured as outlined in Section 2.4. Subsequently, the curve fitting software was used to fit the data according to the following formula: Pt=VS×t+V0−VS(1−e^−kapp×t)/kapp^−1 where, P(t) is the amount of product accumulated after t minutes of reaction, V 0 is the velocity at the start of the reaction, V S is the velocity at which the reaction reaches equilibrium, and kapp is the apparent velocity constant (Breitenbach and Hausinger [1988]). The experiments were repeated three times.

Experiment [4] addresses T2, H. pylori urease (HPU). The description is as above. The experiment is classed as biochemical. As to the method: as §2, §3
Experiment [5] deals with Helicobacter pylori strains (ATCC 43504, HP1869, HP1870). The experiment in a line: Minimal inhibitory concentration assay (agar dilution). The experiment is classed as cell-based. As to conditions: ATCC43504, 120 h, pH 7.2, 5 days. As to the method:
as §1
After solidification and overnight storage at 4°C to confirm sterility, plates showing no contamination were inoculated with 100 μL of H. pylori suspension (adjusted to McFarland 1.0 standard) and incubated microaerophilically (85% N2, 10% CO2, 5% O2) at 37°C for 5 days.

In experiment [6] the target is T1, jack bean urease (JBU). The experiment in a line: Reactivation of PIC-deactivated urease by GSH. In kind it is biochemical. As to the method:
(§4) After 20 min, half of the reaction solution was removed and added to 1.25 mM GSH solution. Enzyme activity was determined before and after the addition of GSH. After co‐incubation for different periods, the residual enzyme activity in the mixtures was detected as described in Section 2.4.

Experiment [7] concerns the target T2, H. pylori urease (HPU). The experiment in a line: Reactivation of PIC-deactivated urease by GSH. In kind it is biochemical. As for the experimental part:
as §4

The mark [8] stands for this setting: 20 min preincubation at 37°C, 150 mM urea, pH 7.5, read-out: IC50.
Where [9] appears, read: Lineweaver-Burk plot, progress curves.
[10] abbreviates: PIC-inactivated urease after adding 1.25 mM GSH.
Setting [11] is: co-incubation with 1.5 mM PIC for 20 min.

The term IC50 denotes the concentration that gives 50% inhibition. As a reminder, the Ki is the dissociation constant of the complex between target and ligand, obtained from inhibition or displacement. The MIC is the lowest concentration that inhibits growth of the organism. Low values mean inhibition by little substance, high ones a need for much substance.

Turning to `O=c1c(-c2ccc(O)cc2)coc2c(O)c(O)ccc12` [7,8,4′‐trihydroxyisoflavone], the IC50 in the experiment on HPU is 140 µM.
As to `CC(=O)NO` [AHA, Acetohydroxamic acid, reference compound], the IC50 was 20 µM on jack bean urease (JBU) [1] (setting [8]) and 80 µM on H. pylori urease (HPU) [2] (setting [8]).
Regarding `O=C(O)[C@H]1O[C@@H](Oc2cc3oc(-c4ccccc4)cc(=O)c3c(O)c2O)[C@H](O)[C@@H](O)[C@@H]1O` [Baicalin], the IC50 in the experiment with JBU (ref Tan et al. [2013], Yu et al. [2015]) is 2740 ± 510 µM.
For `Oc1cc(O)cc(/C=C/c2ccc(O)c(O)c2)c1` [PIC, Piceatannol], the Ki on jack bean urease (JBU) [3] was 340 ± 50 µM; at H. pylori urease (HPU) [4], 630 ± 20 µM. Moreover, the inhibition type entry on jack bean urease (JBU) [3] (setting [9]) is listed as “slow‐binding, non‐competitive inhibitor; also recorded: non‐competitive type; also recorded: slow‐binding inhibition”; against H. pylori urease (HPU) [4] (setting [9]), “slow‐binding, mixed inhibitor; also recorded: mixed‐type inhibitor; also recorded: slow‐binding inhibition”. Further, the “inhibitory constant Kis” value at H. pylori urease (HPU) [4] (secondary replot of Lineweaver-Burk intercepts) was determined as 0.94 ± 0.01 mM. The MIC in experiment [5] (pH 7.2, clinical strain HP1869, Mueller-Hinton agar) was 100 µg/mL (≈ 409 µM); in [5] (pH 7.2, clinical strain HP1870, Mueller-Hinton agar) it was 100 µg/mL (≈ 409 µM); in [5] (pH 7.2, strain ATCC 43504 (standard strain), Mueller-Hinton agar), 150 µg/mL (≈ 614 µM). Besides, the IC50 on jack bean urease (JBU) [1] worked out at 470 ± 10 µM; against H. pylori urease (HPU) [2] it was 670 ± 20 µM. Moreover, the reversibility of inactivation entry on jack bean urease (JBU) [6] (GSH reactivation) and on H. pylori urease (HPU) [7] (GSH reactivation) was “reversible” in each case. The “urease activity restored, of the initial activity” value at jack bean urease (JBU) [6] (setting [10]) and on H. pylori urease (HPU) [7] (setting [10]) was “about 60%” throughout. Moreover, the initial activity lost entry on jack bean urease (JBU) [6] (setting [11]) and at H. pylori urease (HPU) [7] (setting [11]) was “approximately 80%” each time.
As for `O=C(O)[C@H]1O[C@@H](Oc2cc3oc(-c4ccc(O)cc4)cc(=O)c3c(O)c2O)[C@H](O)[C@@H](O)[C@@H]1O` [scutellarin], in the experiment on JBU (ref Wu et al. [2013]), the IC50 is 1350 ± 150 µM.
